The experiment concerns human SOD1 promoter. The experiment can be described thus: SOD1 promoter-EGFP reporter high through-put screening assay in stably transfected PC12 cells. The conditions noted are these: PC12 stable cell line treated 24 hrs with increasing mitomycin C concentration; FIG. 2. In kind it is cell-based, rat. From the text:
We have developed a cell-based, fluorescent high through-put screening assay to identify compounds that reduce SOD1 expression using a stable rat pheochromocytoma PC12 cell line with 2.2 kb of human SOD1 promoter sequence driving EGFP expression (FIG. 1).
The human SOD1 promoter was amplified by PCR from a control DNA sample using primers 5′ […] 3′ (SEQ ID NO:3) and 5′ […] 3′ (SEQ ID NO:4). Restriction sites were incorporated into the primers although these were not used for the cloning but to aid transfer into additional vectors in the future. PCR reactions were carried out in a final volume of 40 μl on a thermocycler (Hybaid). PCR reactions contained a final concentration of 3 U Taq polymerase (New England Biolabs, Beverly, Mass.), 150 ng of DNA, 1×PCR buffer, […] of each dNTP, 40 pmoles of forward and reverse primers (MWG-Biotech, High Point, N.C.), 2.5 mM MgCl2, and 5% DMSO. […]
Initial testing of the assay has been carried out using a known inhibitor of SOD1 expression, mitomycin C (Cho C., et al., (1997), The transcriptional repression of the human Cu/Zn superoxide dismutase(sod1) gene by the anticancer drug, mitomycin C(MMC), Biochem Mol Biol Int., 42:949-56). […] The level of EGFP fluorescence was read on a Wallac plate reader (Perkin Elmer, Boston, Mass.) (excitation 485 nm, emission 535 nm). […]

With `CO[C@@]12[C@H](COC(N)=O)C3=C(C(=O)C(C)=C(N)C3=O)N1C[C@@H]1N[C@@H]12` [mitomycin C], the “EGFP fluorescence (relative expression level)” value was “progressive decrease in fluorescence”.
